Reference: ChEMBL document CHEMBL3046513, “Synthesis, characterization, and biological evaluation of some N-aryl hydrazones and their 2,3-disubstituted-4-thiazolidinone derivatives” (Med Chem Res, 2013)
≈ marks a conversion by molar mass, not a printed value. Calls of active or inactive are those of the source. The calls are words filed in the database; no cut-off is given here.

Tested on: Rattus norvegicus
Test: Anti-inflammatory activity in Rattus norvegicus (rat) assessed as decrease in carrageenan-induced paw edema at 100 mg/kg, po administered 30 min prior to carrageenan challenge measured after 120 min (reference value: 2.375 +/- 0.1436 mm)
Type: functional
Conditions: not given

Going from `COc1ccc(Br)c(C(=O)NN2C(=O)CSC2c2ccc(C)cc2)c1` (stereo unspecified) to `COc1ccc(Br)c(C(=O)NN2C(=O)CSC2c2cccc(Cl)c2)c1` (stereo unspecified), the Activity falls from 1.9 mm to 1.65 mm.

Compound `COc1ccc(Br)c(C(=O)NN2C(=O)CSC2c2ccccc2O)c1` (stereo unspecified) has an Activity of 1.98 mm.

Tested on: Radical scavenging activity
Test: Antioxidant activity assessed as inhibition of DPPH radical generation at 400 ug/mL after 20 min by spectrophotometric analysis relative to control
Type: functional
Conditions: not given

`COc1ccc(Br)c(C(=O)NN2C(=O)CSC2c2cccc(Cl)c2)c1` (stereo unspecified) showed an inhibition of 58.5%.

Tested on: Staphylococcus aureus
Test: Antibacterial activity against Staphylococcus aureus ATCC 25923 assessed as growth inhibition by serial plate dilution method
Type: functional
Conditions: not given

First: COc1ccc(Br)c(C(=O)NN2C(=O)CSC2c2ccc(C)cc2)c1 (stereo unspecified)
Second: COc1ccc(Br)c(C(=O)NN2C(=O)CSC2c2cccc(Cl)c2)c1 (stereo unspecified)
The MIC of the first is 2-fold lower: 6.25 µg/mL (≈ 14.8 µM) for the first, 12.5 µg/mL (≈ 28.3 µM) for the second.

`COc1ccc(Br)c(C(=O)NN2C(=O)CSC2c2ccccc2O)c1` (stereo unspecified) was tested, and the MIC was 6.25 µg/mL (≈ 14.8 µM).

Tested on: Candida albicans
Test: Antifungal activity against Candida albicans assessed as growth inhibition by serial plate dilution method
Type: functional
Conditions: not given

Going from `COc1ccc(Br)c(C(=O)NN2C(=O)CSC2c2ccc(C)cc2)c1` (stereo unspecified) to `COc1ccc(Br)c(C(=O)NN2C(=O)CSC2c2cccc(Cl)c2)c1` (stereo unspecified), the MIC falls from 6.25 µg/mL (≈ 14.8 µM) to 1.56 µg/mL (≈ 3.54 µM) (4-fold).

In the case of `COc1ccc(Br)c(C(=O)NN2C(=O)CSC2c2ccccc2O)c1` (stereo unspecified), the MIC is reported as 3.12 µg/mL (≈ 7.38 µM).

Tested on: Mus musculus
Test: Acute toxicity in Mus musculus Swiss albino (mouse) assessed as behavioral changes at 500 to 2500 mg/kg, po after 4 to 24 hr
Type: organism-based
Parameters: route oral
Conditions: in vivo

In the case of `COc1ccc(Br)c(C(=O)NN2C(=O)CSC2c2cccc(Cl)c2)c1` (stereo unspecified), the Activity is reported as “Non-toxic”.

Tested on: Candida albicans
Test: Ratio of fluconazole MIC to compound MIC for Candida albicans
Type: functional
Conditions: not given

`COc1ccc(Br)c(C(=O)NN2C(=O)CSC2c2cccc(Cl)c2)c1` (stereo unspecified) gave a Ratio of 5.

Tested on: Mus musculus
Test: Acute toxicity in Mus musculus Swiss albino (mouse) assessed as mortality at 500 to 2500 mg/kg, po after 4 to 24 hr
Type: organism-based
Parameters: route oral
Conditions: in vivo

For `COc1ccc(Br)c(C(=O)NN2C(=O)CSC2c2cccc(Cl)c2)c1` (stereo unspecified), the Activity was “Non-toxic”.

Tested on: Rattus norvegicus
Test: Anti-inflammatory activity in Rattus norvegicus (rat) assessed as decrease in carrageenan-induced paw edema at 100 mg/kg, po administered 30 min prior to carrageenan challenge measured after 60 min (reference value: 2.175 +/- 0.1797 mm)
Type: functional
Conditions: not given

Going from `COc1ccc(Br)c(C(=O)NN2C(=O)CSC2c2ccc(C)cc2)c1` (stereo unspecified) to `COc1ccc(Br)c(C(=O)NN2C(=O)CSC2c2cccc(Cl)c2)c1` (stereo unspecified), the Activity rises from 1.525 mm to 1.575 mm.

`COc1ccc(Br)c(C(=O)NN2C(=O)CSC2c2ccccc2O)c1` (stereo unspecified) was tested, and the Activity was 1.88 mm.

Tested on: Mus musculus
Test: Analgesic activity in Mus musculus […] albino (mouse) assessed as time taken to tail withdrawl at 100 mg/kg, po administered through intragastric tube after 120 min by tail flick test (reference value: 1.363 +/- 0.1297 secs)
Type: functional
Conditions: not given

Going from `COc1ccc(Br)c(C(=O)NN2C(=O)CSC2c2ccc(C)cc2)c1` (stereo unspecified) to `COc1ccc(Br)c(C(=O)NN2C(=O)CSC2c2cccc(Cl)c2)c1` (stereo unspecified), the Time rises from 2.088 s to 2.8 s.

With `COc1ccc(Br)c(C(=O)NN2C(=O)CSC2c2ccccc2O)c1` (stereo unspecified) the Time was 3.623 s.

Tested on: Pseudomonas aeruginosa
Test: Antibacterial activity against Pseudomonas aeruginosa ATCC 27853 assessed as growth inhibition by serial plate dilution method
Type: functional
Conditions: not given

Compared with `COc1ccc(Br)c(C(=O)NN2C(=O)CSC2c2ccc(C)cc2)c1` (stereo unspecified), `COc1ccc(Br)c(C(=O)NN2C(=O)CSC2c2cccc(Cl)c2)c1` (stereo unspecified) is 2-fold lower in MIC: 12.5 µg/mL (≈ 29.7 µM) for the first, 6.25 µg/mL (≈ 14.1 µM) for the second.

Work on `COc1ccc(Br)c(C(=O)NN2C(=O)CSC2c2ccccc2O)c1` (stereo unspecified) yielded an MIC of 6.25 µg/mL (≈ 14.8 µM).

Tested on: Mus musculus
Test: Analgesic activity in Mus musculus […] albino (mouse) assessed as time taken to tail withdrawl at 100 mg/kg, po administered through intragastric tube after 180 min by tail flick test (reference value: 1.363 +/- 0.1297 secs)
Type: functional
Conditions: not given

Compared with `COc1ccc(Br)c(C(=O)NN2C(=O)CSC2c2ccc(C)cc2)c1` (stereo unspecified), `COc1ccc(Br)c(C(=O)NN2C(=O)CSC2c2cccc(Cl)c2)c1` (stereo unspecified) is higher in Time: 2.225 s for the first, 2.438 s for the second.

`COc1ccc(Br)c(C(=O)NN2C(=O)CSC2c2ccccc2O)c1` (stereo unspecified) showed a Time of 2.235 s.

Tested on: Radical scavenging activity
Test: Antioxidant activity assessed as inhibition of DPPH radical generation at 200 to 800 ug/mL after 20 min by spectrophotometric analysis
Type: functional
Conditions: not given

For `COc1ccc(Br)c(C(=O)NN2C(=O)CSC2c2ccc(C)cc2)c1` (stereo unspecified), the inhibition was “inactive”.
`COc1ccc(Br)c(C(=O)NN2C(=O)CSC2c2ccccc2O)c1` (stereo unspecified) was tested, and the inhibition was “inactive”.

Tested on: Radical scavenging activity
Test: Antioxidant activity assessed as inhibition of DPPH radical generation at 800 ug/mL after 20 min by spectrophotometric analysis relative to control
Type: functional
Conditions: not given

Compound `COc1ccc(Br)c(C(=O)NN2C(=O)CSC2c2cccc(Cl)c2)c1` (stereo unspecified) has an inhibition of 59.5%.

Tested on: Radical scavenging activity
Test: Antioxidant activity assessed as inhibition of DPPH radical generation at 200 ug/mL after 20 min by spectrophotometric analysis relative to control
Type: functional
Conditions: not given

With `COc1ccc(Br)c(C(=O)NN2C(=O)CSC2c2cccc(Cl)c2)c1` (stereo unspecified) the inhibition was 57.6%.

Tested on: Escherichia coli
Test: Antibacterial activity against Escherichia coli ATCC 25922 assessed as growth inhibition by serial plate dilution method
Type: functional
Conditions: not given

`COc1ccc(Br)c(C(=O)NN2C(=O)CSC2c2ccc(C)cc2)c1` (stereo unspecified) and `COc1ccc(Br)c(C(=O)NN2C(=O)CSC2c2cccc(Cl)c2)c1` (stereo unspecified) are the same in MIC: 12.5 µg/mL (≈ 29.7 µM) for the first, 12.5 µg/mL (≈ 28.3 µM) for the second.

Work on `COc1ccc(Br)c(C(=O)NN2C(=O)CSC2c2ccccc2O)c1` (stereo unspecified) yielded an MIC of 12.5 µg/mL (≈ 29.5 µM).

Tested on: Bacillus cereus
Test: Antibacterial activity against Bacillus cereus assessed as growth inhibition by serial plate dilution method
Type: functional
Conditions: not given

Going from `COc1ccc(Br)c(C(=O)NN2C(=O)CSC2c2ccc(C)cc2)c1` (stereo unspecified) to `COc1ccc(Br)c(C(=O)NN2C(=O)CSC2c2cccc(Cl)c2)c1` (stereo unspecified), the MIC falls from 12.5 µg/mL (≈ 29.7 µM) to 6.25 µg/mL (≈ 14.1 µM) (2-fold).

`COc1ccc(Br)c(C(=O)NN2C(=O)CSC2c2ccccc2O)c1` (stereo unspecified) was tested, and the MIC was 12.5 µg/mL (≈ 29.5 µM).

Tested on: Rattus norvegicus
Test: Anti-inflammatory activity in Rattus norvegicus (rat) assessed as decrease in carrageenan-induced paw edema at 100 mg/kg, po administered 30 min prior to carrageenan challenge measured after 180 min (reference value: 2.275 +/- 0.1181 mm)
Type: functional
Conditions: not given

First: COc1ccc(Br)c(C(=O)NN2C(=O)CSC2c2ccc(C)cc2)c1 (stereo unspecified)
Second: COc1ccc(Br)c(C(=O)NN2C(=O)CSC2c2cccc(Cl)c2)c1 (stereo unspecified)
The Activity of the first is higher: 1.95 mm for the first, 1.6 mm for the second.

In the case of `COc1ccc(Br)c(C(=O)NN2C(=O)CSC2c2ccccc2O)c1` (stereo unspecified), the Activity is reported as 2.081 mm.

Tested on: Mus musculus
Test: Analgesic activity in Mus musculus […] albino (mouse) assessed as time taken to tail withdrawl at 100 mg/kg, po administered through intragastric tube after 60 min by tail flick test (reference value: 1.363 +/- 0.1297 secs)
Type: functional
Conditions: not given

Compared with `COc1ccc(Br)c(C(=O)NN2C(=O)CSC2c2ccc(C)cc2)c1` (stereo unspecified), `COc1ccc(Br)c(C(=O)NN2C(=O)CSC2c2cccc(Cl)c2)c1` (stereo unspecified) is higher in Time: 2.038 s for the first, 2.825 s for the second.

Compound `COc1ccc(Br)c(C(=O)NN2C(=O)CSC2c2ccccc2O)c1` (stereo unspecified) has a Time of 3.546 s.
